Consider ten compounds from paper PMC12498222 (RSC Advances, 2025).

Data set [1] deals with MCF-7. Put plainly: cells. Particulars: Homo sapiens, MCF7, 24 h, read-out: In vitro cytotoxicity IC50 (mean ± SD) MCF-7.
A further data set deals with EGFR TK enzyme (Homo sapiens, UniProt P00533). Briefly: biochemical. Particulars: EGFR IC50 (mean ± SD), ATP 1.65 μM, 30 min, room temperature.
In data set [2] the test system is MCF-7. Particulars: for anti-proliferative activity category: MCF-7, in words; for IC50: human.

Several values for one entry are separate records, joined by “and”; a condition that tells them apart may be missing. Equal entries are not always repeated. Where two headings read alike, the source gives them in different places.

A word on the IC50: it is the concentration that gives 50% inhibition.

Chain of EGFR TK enzyme (P00533 25-1210): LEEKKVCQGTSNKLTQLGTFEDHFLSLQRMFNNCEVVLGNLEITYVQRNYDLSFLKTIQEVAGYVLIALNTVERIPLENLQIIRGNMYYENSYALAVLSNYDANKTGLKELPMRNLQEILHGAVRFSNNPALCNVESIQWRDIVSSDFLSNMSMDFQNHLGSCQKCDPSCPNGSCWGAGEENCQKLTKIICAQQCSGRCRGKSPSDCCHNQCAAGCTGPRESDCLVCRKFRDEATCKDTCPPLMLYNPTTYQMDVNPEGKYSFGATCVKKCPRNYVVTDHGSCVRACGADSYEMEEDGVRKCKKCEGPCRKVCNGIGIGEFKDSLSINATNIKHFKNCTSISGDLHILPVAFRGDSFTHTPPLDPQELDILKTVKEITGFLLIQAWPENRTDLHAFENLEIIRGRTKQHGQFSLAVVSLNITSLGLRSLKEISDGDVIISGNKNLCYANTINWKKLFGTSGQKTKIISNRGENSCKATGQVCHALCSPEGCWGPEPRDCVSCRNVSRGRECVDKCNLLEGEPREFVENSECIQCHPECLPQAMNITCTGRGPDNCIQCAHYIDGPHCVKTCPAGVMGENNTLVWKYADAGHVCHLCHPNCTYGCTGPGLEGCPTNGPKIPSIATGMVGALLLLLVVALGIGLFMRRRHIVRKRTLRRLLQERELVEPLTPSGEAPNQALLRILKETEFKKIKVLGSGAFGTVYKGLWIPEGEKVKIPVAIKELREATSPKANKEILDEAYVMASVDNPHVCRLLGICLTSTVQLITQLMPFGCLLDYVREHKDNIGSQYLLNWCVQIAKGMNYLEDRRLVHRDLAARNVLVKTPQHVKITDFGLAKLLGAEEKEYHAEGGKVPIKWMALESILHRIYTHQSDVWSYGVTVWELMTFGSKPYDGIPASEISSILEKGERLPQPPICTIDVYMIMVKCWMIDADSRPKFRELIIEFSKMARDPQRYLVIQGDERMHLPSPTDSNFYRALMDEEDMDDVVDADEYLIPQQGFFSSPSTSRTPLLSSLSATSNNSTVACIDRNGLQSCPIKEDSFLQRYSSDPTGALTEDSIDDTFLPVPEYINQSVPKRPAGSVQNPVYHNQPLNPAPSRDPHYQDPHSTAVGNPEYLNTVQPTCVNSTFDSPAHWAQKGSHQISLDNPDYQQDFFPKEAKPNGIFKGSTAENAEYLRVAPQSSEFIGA

As for `O=C1CCC(N2C(=O)c3ccccc3C2=O)C(=O)N1` (stereo not shown) [Thalidomide, reference compound], in the data set with MCF-7 [1], the IC50 amounted to 13.4 ± 0.5 µM.
Regarding `Nc1cc(N2C(=O)c3ccccc3C2=O)nc(SCC(=O)NN=Cc2ccc(Cl)cc2)n1` [6c, 2-((4-Amino-6-(1,3-dioxoisoindolin-2-yl)pyrimidin-2-yl)thio)-N′-(4-chlorobenzylidene)acetohydrazide], the IC50 on EGFR TK enzyme is 0.9 µM and 0.88 µM; in the data set on MCF-7 [2], 31.8 ± 2 µM; in the data set on MCF-7 [1] it was 37.7 ± 3.6 µM. Also, the anti-proliferative activity category entry with MCF-7 [2] is on record as “moderate activity”.
Consider `COc1ccc(C=NNC(=O)CSc2nc(N)cc(N3C(=O)c4ccccc4C3=O)n2)cc1OC` [6g, 2-((4-Amino-6-(1,3-dioxoisoindolin-2-yl)pyrimidin-2-yl)thio)-N′-(3,4-dimethoxy-benzylidene)acetohydrazide], for which the anti-proliferative activity category entry with MCF-7 [2] is “moderate activity”. In the data set with MCF-7 [1], the half-inhibitory concentration (IC50) is 19.6 ± 1.5 µM.
As to `CCCCNC(c1ccccc1)c1c(N)[nH]c(=O)[nH]c1=O` (stereo not shown) [10c, 6-Amino-5-((butylamino)(phenyl)methyl)pyrimidine-2,4(1H,3H)-dione], the values for the IC50 against EGFR TK enzyme and in the data set with MCF-7 [1] were 0.99 ± 0.03 µM and 7.6 ± 0.5 µM, respectively. Moreover, the anti-proliferative activity category entry in the data set on MCF-7 [2] is given as “high anti-proliferative activity”.
For the compound `CCNC(c1ccccc1)c1c(N)[nH]c(=O)[nH]c1=O` (stereo not shown) [10b, 6-Amino-5-((ethylamino)(phenyl)methyl)pyrimidine-2,4(1H,3H)-dione], the concentration for half-maximal inhibition (IC50) was 0.65 ± 0.02 µM against EGFR TK enzyme, 37.7 ± 2.4 µM in the data set with MCF-7 [2] and 31.8 ± 2 µM with MCF-7 [1]. In the data set on MCF-7 [2], the anti-proliferative activity category result is on record as “moderate activity”.
As to `CN(C)C(c1ccccc1)c1c(N)[nH]c(=O)[nH]c1=O` (stereo not shown) [10d, 6-Amino-5-((dimethylamino)(phenyl)methyl)pyrimidine-2,4(1H,3H)-dione], in the data set on MCF-7 [2], the anti-proliferative activity category entry is listed as “high anti-proliferative activity” and the 50% inhibitory concentration (IC50) was 14.2 ± 1.2 µM. In the data set on MCF-7 [1], the IC50 was 8.6 ± 0.7 µM.
For `CNC(c1ccccc1)c1c(N)[nH]c(=O)[nH]c1=O` (stereo not shown) [10a, 6-Amino-5-((methylamino)(phenyl)methyl)pyrimidine-2,4(1H,3H)-dione], the IC50 against EGFR TK enzyme came out at 4.6 ± 0.11 µM; in the data set with MCF-7 [1], 8.6 ± 0.7 µM.
For `Nc1cc(N2C(=O)c3ccccc3C2=O)nc(SCC(=O)NN=Cc2ccc([N+](=O)[O-])cc2)n1` [6b, 2-((4-Amino-6-(1,3-dioxoisoindolin-2-yl)pyrimidin-2-yl)thio)-N′-(4-nitrobenzylidene)acetohydrazide], in the data set with MCF-7 [2], the anti-proliferative activity category result was “moderate activity”. Besides, the 50% inhibitory concentration (IC50) in the data set with MCF-7 [1] came out at 48.4 ± 2.8 µM.
For the compound `Nc1cc(N2C(=O)c3ccccc3C2=O)nc(SCC(=O)NN=Cc2cccc([N+](=O)[O-])c2)n1` [6a, 2-((4-Amino-6-(1,3-dioxoisoindolin-2-yl)pyrimidin-2-yl)thio)-N′-(3-nitrobenzylidene)acetohydrazide], in the data set on MCF-7 [2], the anti-proliferative activity category entry is “lowest anti-proliferative activity”. In addition, in the data set with MCF-7 [1], the IC50 was determined as 62 ± 3.3 µM.
With `Nc1cc(N2C(=O)c3ccccc3C2=O)nc(SCC(=O)NN=Cc2ccc(O)cc2)n1` [6e, 2-((4-Amino-6-(1,3-dioxoisoindolin-2-yl)pyrimidin-2-yl)thio)-N′-(4-hydroxybenzylidene)acetohydrazide], the anti-proliferative activity category entry in the data set with MCF-7 [2] is reported as “lowest anti-proliferative activity”. Moreover, the IC50 with MCF-7 [1] is 75.4 ± 3.7 µM.
